Data on three molecules can be found in ChEMBL document CHEMBL5653631, “A Potent and Selective ULK1 Inhibitor Suppresses Autophagy and Sensitizes Cancer Cells to Nutrient Stress” (iScience, 2018).

The inhibition is the percentage by which the read-out fell short of the control.

In assay [1] the target is Glycogen synthase kinase-3 alpha (Homo sapiens) (UniProt P49840). Put plainly: Inhibition of human recombinant GSK3A at 15 nM related to control ULK1.
Assay [2] concerns the target T1, Inhibitor of nuclear factor kappa-B kinase subunit beta (Homo sapiens) (UniProt O14920).
T1 sequence (whole entry): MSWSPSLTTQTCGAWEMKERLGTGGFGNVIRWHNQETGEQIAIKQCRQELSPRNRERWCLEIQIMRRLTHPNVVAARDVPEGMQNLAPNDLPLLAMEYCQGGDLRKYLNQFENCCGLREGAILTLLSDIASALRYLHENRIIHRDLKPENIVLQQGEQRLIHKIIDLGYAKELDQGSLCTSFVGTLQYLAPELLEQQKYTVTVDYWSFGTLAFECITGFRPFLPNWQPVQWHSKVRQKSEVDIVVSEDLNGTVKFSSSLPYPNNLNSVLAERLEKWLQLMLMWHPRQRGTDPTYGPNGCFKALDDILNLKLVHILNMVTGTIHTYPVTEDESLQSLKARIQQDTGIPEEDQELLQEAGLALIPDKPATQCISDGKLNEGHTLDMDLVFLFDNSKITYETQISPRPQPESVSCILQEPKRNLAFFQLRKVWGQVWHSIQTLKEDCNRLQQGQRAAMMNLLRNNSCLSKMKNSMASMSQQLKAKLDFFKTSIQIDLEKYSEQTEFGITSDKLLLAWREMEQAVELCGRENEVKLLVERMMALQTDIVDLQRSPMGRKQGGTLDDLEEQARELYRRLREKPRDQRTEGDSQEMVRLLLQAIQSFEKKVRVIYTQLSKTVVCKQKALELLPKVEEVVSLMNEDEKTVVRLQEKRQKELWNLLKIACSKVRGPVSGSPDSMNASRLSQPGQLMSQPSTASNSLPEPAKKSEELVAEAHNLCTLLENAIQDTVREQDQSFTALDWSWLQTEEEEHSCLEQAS
Put plainly: Inhibition of human recombinant IKKb at 15 nM in presence of ATP by radiometric assay relative to control.

For assay [3], the target named is T2, Serine/threonine-protein kinase ICK (Homo sapiens) (UniProt Q9UPZ9).
T2 sequence (whole entry): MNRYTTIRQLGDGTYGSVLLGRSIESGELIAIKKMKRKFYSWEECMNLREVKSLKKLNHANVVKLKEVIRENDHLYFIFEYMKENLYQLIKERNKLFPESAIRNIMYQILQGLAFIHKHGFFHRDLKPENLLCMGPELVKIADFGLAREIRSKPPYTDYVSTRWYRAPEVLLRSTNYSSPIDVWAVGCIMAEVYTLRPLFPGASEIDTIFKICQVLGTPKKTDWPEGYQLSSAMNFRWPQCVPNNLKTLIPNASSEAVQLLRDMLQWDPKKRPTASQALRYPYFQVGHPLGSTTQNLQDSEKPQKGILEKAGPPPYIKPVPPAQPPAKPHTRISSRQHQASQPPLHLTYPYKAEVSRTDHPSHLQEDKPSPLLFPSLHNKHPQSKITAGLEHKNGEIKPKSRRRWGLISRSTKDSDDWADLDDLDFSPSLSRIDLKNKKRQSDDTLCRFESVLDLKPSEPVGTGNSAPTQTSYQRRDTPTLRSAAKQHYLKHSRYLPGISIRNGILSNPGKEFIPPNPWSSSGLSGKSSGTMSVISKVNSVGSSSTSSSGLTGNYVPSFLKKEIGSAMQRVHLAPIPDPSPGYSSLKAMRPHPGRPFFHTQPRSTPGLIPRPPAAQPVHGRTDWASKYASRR
Put plainly: Inhibition of human recombinant ICK at 15 nM in presence of ATP by radiometric assay relative to control.

Assay [4] concerns the target Cyclin-dependent kinase-like 1 (Homo sapiens) (UniProt Q00532). Put plainly: Inhibition of human recombinant CDKL1 at 40 nM related to control ULK1.
In assay [5] the target is T3, Testis-specific serine/threonine-protein kinase 1 (Homo sapiens) (UniProt Q9BXA7).
T3 sequence (whole entry): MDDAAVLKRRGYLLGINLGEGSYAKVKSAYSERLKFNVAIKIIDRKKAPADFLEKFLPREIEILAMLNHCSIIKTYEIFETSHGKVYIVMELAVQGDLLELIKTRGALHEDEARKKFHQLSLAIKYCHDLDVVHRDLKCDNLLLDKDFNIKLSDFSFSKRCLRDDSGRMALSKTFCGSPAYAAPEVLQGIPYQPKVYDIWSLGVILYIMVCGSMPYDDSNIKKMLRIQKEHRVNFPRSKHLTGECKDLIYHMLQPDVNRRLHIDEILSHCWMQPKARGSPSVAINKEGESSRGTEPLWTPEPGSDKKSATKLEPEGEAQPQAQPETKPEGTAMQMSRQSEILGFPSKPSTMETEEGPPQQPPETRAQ
Put plainly: Inhibition of human recombinant TSSK1 at 40 nM related to control ULK1.

Assay [6] deals with T4, cGMP-dependent protein kinase 1 (Homo sapiens) (UniProt Q13976).
T4 sequence (whole entry): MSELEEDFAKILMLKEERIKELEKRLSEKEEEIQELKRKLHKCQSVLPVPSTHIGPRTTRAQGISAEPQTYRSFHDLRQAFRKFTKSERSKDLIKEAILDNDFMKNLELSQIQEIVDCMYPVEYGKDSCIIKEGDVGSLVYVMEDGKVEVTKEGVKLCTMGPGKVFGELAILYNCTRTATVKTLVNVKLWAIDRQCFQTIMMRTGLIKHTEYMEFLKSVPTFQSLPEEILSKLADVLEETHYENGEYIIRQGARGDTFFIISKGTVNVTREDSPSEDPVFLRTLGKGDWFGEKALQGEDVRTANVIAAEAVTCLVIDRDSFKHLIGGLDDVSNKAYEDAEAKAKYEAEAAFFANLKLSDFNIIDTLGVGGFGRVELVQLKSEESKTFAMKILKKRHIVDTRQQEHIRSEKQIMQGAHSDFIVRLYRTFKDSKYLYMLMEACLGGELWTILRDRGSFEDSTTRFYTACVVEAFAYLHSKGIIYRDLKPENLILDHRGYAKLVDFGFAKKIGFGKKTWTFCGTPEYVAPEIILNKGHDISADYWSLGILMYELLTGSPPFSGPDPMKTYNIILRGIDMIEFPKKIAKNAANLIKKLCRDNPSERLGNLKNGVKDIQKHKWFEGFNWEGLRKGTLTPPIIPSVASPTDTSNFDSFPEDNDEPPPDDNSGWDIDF
Briefly: Inhibition of human recombinant PKG1 at 40 nM related to control ULK1.

Assay [7] addresses Tyrosine-protein kinase Fgr (Homo sapiens) (UniProt P09769). Put plainly: Inhibition of human recombinant FGR at 500 nM related to control ULK1.
Assay [8] deals with Calcium/calmodulin-dependent protein kinase type II subunit gamma (Homo sapiens) (UniProt Q13555). Briefly: Inhibition of human recombinant CaMK2g at 500 nM in presence of ATP by radiometric assay relative to control.
Sequence of Calcium/calmodulin-dependent protein kinase type II subunit gamma (Homo sapiens) (Q13555 whole entry): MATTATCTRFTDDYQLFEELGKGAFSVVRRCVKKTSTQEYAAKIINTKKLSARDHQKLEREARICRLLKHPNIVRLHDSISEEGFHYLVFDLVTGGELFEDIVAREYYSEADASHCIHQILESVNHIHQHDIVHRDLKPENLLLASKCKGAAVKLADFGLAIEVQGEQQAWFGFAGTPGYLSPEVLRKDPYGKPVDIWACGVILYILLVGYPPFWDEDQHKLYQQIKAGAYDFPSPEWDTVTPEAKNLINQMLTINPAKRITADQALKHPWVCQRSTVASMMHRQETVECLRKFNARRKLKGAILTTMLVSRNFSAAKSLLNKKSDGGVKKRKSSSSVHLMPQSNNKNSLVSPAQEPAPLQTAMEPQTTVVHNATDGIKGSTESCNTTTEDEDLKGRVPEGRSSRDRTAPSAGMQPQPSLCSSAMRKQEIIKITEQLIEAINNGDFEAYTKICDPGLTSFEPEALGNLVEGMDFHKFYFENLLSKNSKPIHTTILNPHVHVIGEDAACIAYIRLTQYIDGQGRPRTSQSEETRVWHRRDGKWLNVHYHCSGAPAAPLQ
Assay [9] has as its target Protein kinase C iota type (Homo sapiens) (UniProt P41743). Briefly: Inhibition of human recombinant PKCi at 500 nM related to control ULK1.
For assay [10], the target named is Fibroblast growth factor receptor 1 (Homo sapiens) (UniProt P11362). Put plainly: Inhibition of human recombinant FGFR1 at 500 nM related to control ULK1.
Sequence of Fibroblast growth factor receptor 1 (Homo sapiens) (P11362 22-822 limits assumed): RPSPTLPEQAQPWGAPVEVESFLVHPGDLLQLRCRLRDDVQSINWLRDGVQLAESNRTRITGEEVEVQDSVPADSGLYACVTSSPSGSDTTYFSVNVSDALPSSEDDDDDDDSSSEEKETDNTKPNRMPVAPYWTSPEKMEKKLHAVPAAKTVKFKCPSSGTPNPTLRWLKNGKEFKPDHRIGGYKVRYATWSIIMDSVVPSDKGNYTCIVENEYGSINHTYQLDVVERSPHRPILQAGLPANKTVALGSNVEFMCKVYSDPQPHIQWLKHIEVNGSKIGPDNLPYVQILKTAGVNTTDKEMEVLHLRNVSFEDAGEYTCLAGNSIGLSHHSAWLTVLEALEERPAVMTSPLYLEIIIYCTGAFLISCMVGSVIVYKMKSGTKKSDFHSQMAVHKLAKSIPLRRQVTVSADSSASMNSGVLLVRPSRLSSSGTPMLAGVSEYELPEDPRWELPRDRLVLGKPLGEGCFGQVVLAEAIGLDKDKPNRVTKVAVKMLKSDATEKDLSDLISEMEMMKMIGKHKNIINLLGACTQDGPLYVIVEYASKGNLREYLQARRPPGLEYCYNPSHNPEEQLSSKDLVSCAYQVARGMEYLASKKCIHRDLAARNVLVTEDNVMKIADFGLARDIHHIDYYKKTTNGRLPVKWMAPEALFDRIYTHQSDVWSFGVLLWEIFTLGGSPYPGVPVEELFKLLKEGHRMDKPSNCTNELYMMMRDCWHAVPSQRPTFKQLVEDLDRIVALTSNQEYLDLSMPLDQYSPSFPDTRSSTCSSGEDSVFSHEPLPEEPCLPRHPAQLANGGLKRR

Sequence of Glycogen synthase kinase-3 alpha (Homo sapiens) (P49840 2-483 limits assumed): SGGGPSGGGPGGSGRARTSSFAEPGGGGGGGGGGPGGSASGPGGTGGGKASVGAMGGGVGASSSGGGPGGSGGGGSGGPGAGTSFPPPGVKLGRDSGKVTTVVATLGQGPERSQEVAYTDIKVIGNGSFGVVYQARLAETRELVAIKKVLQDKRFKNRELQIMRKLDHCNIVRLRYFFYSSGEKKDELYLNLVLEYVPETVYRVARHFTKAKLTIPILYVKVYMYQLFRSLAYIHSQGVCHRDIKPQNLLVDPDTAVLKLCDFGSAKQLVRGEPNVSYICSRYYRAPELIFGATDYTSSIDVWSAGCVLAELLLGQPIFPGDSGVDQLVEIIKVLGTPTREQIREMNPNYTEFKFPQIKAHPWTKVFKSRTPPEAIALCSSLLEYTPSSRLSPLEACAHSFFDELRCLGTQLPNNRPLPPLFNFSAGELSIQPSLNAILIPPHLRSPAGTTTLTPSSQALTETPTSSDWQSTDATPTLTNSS
Sequence of Tyrosine-protein kinase Fgr (Homo sapiens) (P09769 2-529 limits assumed): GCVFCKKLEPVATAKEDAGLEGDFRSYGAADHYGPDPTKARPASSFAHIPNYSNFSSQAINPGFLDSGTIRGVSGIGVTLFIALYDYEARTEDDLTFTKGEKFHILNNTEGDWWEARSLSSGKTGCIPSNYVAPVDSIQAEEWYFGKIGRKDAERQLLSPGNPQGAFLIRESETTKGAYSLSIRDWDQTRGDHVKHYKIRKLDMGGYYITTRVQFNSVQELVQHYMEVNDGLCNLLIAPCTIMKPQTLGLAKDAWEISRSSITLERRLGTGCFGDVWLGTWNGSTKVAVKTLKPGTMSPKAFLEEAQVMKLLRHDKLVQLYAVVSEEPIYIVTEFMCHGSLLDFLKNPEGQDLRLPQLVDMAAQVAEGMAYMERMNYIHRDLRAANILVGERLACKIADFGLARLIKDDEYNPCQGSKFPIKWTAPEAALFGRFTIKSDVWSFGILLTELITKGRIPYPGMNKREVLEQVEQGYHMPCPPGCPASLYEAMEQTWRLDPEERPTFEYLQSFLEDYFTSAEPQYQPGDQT
Sequence of Protein kinase C iota type (Homo sapiens) (P41743 whole entry, looked up): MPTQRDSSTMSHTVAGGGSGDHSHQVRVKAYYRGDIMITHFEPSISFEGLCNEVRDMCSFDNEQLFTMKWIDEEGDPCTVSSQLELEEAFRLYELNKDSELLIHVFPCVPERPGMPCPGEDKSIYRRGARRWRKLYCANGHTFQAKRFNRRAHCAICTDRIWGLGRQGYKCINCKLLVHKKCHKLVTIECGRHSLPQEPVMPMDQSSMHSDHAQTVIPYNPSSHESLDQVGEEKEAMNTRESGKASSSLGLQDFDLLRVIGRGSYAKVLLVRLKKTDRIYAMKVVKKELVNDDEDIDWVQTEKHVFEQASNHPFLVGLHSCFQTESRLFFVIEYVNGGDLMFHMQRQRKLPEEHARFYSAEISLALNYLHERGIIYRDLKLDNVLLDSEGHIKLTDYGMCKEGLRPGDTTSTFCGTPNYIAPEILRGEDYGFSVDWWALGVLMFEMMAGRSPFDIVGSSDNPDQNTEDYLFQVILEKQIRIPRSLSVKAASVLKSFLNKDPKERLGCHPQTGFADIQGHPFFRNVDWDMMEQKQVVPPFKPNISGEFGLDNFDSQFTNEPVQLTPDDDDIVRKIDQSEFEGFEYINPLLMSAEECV
Sequence of Cyclin-dependent kinase-like 1 (Homo sapiens) (Q00532 whole entry): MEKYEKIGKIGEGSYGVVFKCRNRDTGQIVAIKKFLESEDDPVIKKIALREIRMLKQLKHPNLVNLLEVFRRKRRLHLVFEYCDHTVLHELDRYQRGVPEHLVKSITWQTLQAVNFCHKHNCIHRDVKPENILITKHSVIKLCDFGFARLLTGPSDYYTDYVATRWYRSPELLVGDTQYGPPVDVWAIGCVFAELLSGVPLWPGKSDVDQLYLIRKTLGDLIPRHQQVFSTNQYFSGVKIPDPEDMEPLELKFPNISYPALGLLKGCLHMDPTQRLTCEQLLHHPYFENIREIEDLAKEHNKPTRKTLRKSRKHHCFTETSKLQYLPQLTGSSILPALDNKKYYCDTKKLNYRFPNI

For the molecule `CC(C)[C@H](NC(=O)c1cc(-c2cnn3cc(-c4ccc(OCCN5CCCCC5)cc4)cnc23)cs1)C(F)(F)F`, the fold change (FC) in assay [1] worked out at 0. For the same molecule, the inhibition in assay [2] and in assay [3] was 0% each time.
Consider `O=C(N[C@@H](C1CC1)C(F)(F)F)c1cc(-c2cnn3cc(-c4ccc(F)cc4)cnc23)cs1`, for which the fold change (FC) in assay [4] stood at 0.21; in assay [5], 0; in assay [6], 0.08.
As for `CNC(=O)c1ccccc1Oc1nc(Nc2cc(OC)c(OC)c(OC)c2)ncc1Br`, the fold change (FC) in assay [7] was 0.11; in [9], 0; in assay [10] it was 0.47. Also, the inhibition in assay [8] turned out to be 2%.
